# The source made the active and inactive calls. The rule behind the calls is not given here.
# Columns and labels:
# [1] = test system: B-cell; assay: Immunoregulatory activity assessed as stimulation of B cell proliferation at 10 uM; assay type: functional, cell-based
# [2] = test system: T-cell; assay: Immunoregulatory activity assessed as inhibition of T cell proliferation at 0.1 uM; assay type: functional, cell-based
# [3] = Cytotoxicity against T cell; assay type: cell-based
Structure (SMILES),Activity [1],Activity [2],Activity [3]
CC(C)(O)[C@H]1C[C@H](O[C@@H]2O[C@H](CO)[C@@H](O)[C@H](O)[C@H]2O)[C@@]2(C)[C@@H]3CC[C@]2(C)C(=O)[C@@H]31 [DENDROMONILISIDE A],Active,Active,Non-toxic
COc1cc(CO)ccc1O[C@@H]1O[C@H](CO)[C@@H](O)[C@H](O)[C@H]1O [VANILLOLOSIDE],Active,Active,Non-toxic
CC(C)[C@H]1[C@@H]2OC(=O)[C@H]1[C@H]1C[C@H](O[C@@H]3O[C@H](CO)[C@@H](O)[C@H](O)[C@H]3O)[C@]3(CO3)[C@@]1(C)[C@H]2O [DENDROMONILISIDE C],Active,Active,Non-toxic

# From ChEMBL document CHEMBL1146585, “Copacamphane, picrotoxane, and alloaromadendrane sesquiterpene glycosides and phenolic glycosides from Dendrobium moniliforme” (J Nat Prod, 2003)
